What was measured:
[1] = system: rat primary cerebellar neurons (CBN); experiment: Neurite length of cerebellar neurons in in vitro hypoxia condition; assay type: cell-based; conditions: hypoxia 24 hours, then treatment for additional 24 hrs
Protocol: To generate hypoxia condition as a SCI model in vitro, rat primary cerebellar neurons (CBN) were isolated from P3 pubs and plated on the PLL/Laminin coated well plate. After 3 days culture, the cells were incubated in hypoxia gas chamber (95% N2 and 5% 02) for 24 hours and then the cells were treated with Rm-PgP and PgP without rolipram. Cells treated with free rolipram dissolved in DMSO were used as a positive control and cells maintained under normal atmospheric conditions were used as a negative control. The cells were incubated an additional 24 hrs in hypoxia condition and then fixed for neurite length evaluation. The neurite lengths were measured using ImageJ software program after β-3 tubulin staining.

[2] = Sirolimus and heparin loading in PgP micelles; assay type: physicochemical; conditions: 0.45 μm filter
Protocol: 50 μl Hep-F (20 mg/ml) was added into PgP solution, followed by two more hours stirring. Methanol was allowed to evaporate overnight, and the solution was centrifuged at 15,000×RCF for 15 minutes. Supernatant containing unbound Hep-F was removed and the precipitated nanoparticle was collected, resuspended and then filtered using 0.45 μm sterile syringe filter to remove unloaded SR. The amount of Hep-F binding to PgP was measured using Hep-F standard curve. Fluorescence was measured using a microplate reader (Excitation: 494 nm Emission: 521 nm, Biotek, VT, USA). Loading efficiency for Hep was calculated as % loading efficiency=(amount of Hep bound to PgP/amount of Hep added to PgP)×100.
Sr-PgP-Hep was prepared sequential loading of SR and Hep in PgP. Briefly, SR solution (LC labs, USA) was loaded in the PgP using solvent evaporation method and Hep was added into SR-PgP solution. […] The amount of SR loaded in PgP micelles solution was measured by High Pressure Liquid Chromatography (HPLC) (Waters Corporation, USA) using SR standard curve prepared in acetonitrile (ACN). […] The loading efficiency was calculated as: % loading efficiency=amount of SR loaded/amount of SR added ×100. The amount of Hep bound to PgP was determined based on Hep-F loading as described above.

Row | Structure (SMILES) | neurite length compared with normoxia [1] | SR added in water without PgP, detection by HPLC after filtration [2]
1 | COc1ccc(C2CNC(=O)C2)cc1OC1CCCC1 (centres unmarked) [free Rm, rolipram] | not significantly different | 
2 | CO[C@H]1C[C@@H]2CC[C@@H](C)[C@@](O)(O2)C(=O)C(=O)N2CCCC[C@H]2C(=O)O[C@H]([C@H](C)C[C@@H]2CC[C@@H](O)[C@H](OC)C2)CC(=O)[C@H](C)/C=C(\C)[C@@H](O)[C@@H](OC)C(=O)[C@H](C)C[C@H](C)/C=C/C=C/C=C/1C [sirolimus] |  | not detected
